In article PMC10792626 (Saudi Pharmaceutical Journal : SPJ, 2023):
Converted amounts (≈) assume the structure as drawn.

Molecular target: α-amylase
Test: In vitro α-amylase inhibition assay
Type: biochemical
Conditions: phosphate buffer pH 6.8, 37 °C

O=C(/C=C/c1ccc(O)cc1)OC[C@H]1O[C@@H](Oc2c(-c3ccc(O)cc3)oc3cc(O)cc(O)c3c2=O)[C@H](O)[C@@H](O)[C@@H]1O [Compound 2, Tiliroside]
IC50 α-amylase: 180.6 ± 2.04 µg/mL (≈ 304 µM)

O=c1c(O)c(-c2ccc(O)cc2)oc2cc(O)cc(O)c12 [Compound 3, Kaempferol]
IC50 α-amylase: 135.2 ± 1.84 µg/mL (≈ 472 µM)

C[C@@H]1O[C@@H](OC[C@H]2O[C@@H](Oc3c(-c4ccc(O)c(O)c4)oc4cc(O)cc(O)c4c3=O)[C@H](O)[C@@H](O)[C@@H]2O)[C@H](O)[C@H](O)[C@H]1O [Compound 5, Rutin]
IC50 α-amylase: 177.2 ± 2.01 µg/mL (≈ 290 µM)

Quercetin [Compound 4]
IC50 α-amylase: 118.4 ± 1.38 µg/mL
